Assay results published in US9556154B2, “Pyrrole-substituted indolone derivative, preparation method therefor, composition comprising same and use thereof” (SHIJIAZHUANG YILING PHARMACEUTICAL CO., LTD., priority 2014, dated 2017).
“Also recorded” adds a separate entry of the source. Like-named read-outs stand apart in the source and are kept apart here.

Tests used:
[1] = test system: MV-4-11 cell line; experiment: Inhibitory activity on proliferation of human-derived MV-4-11 tumor cell line (MTS); assay type: cell-based; settings: for IC50: Homo sapiens, MV4-11, 72 h, read-out: IC50, in vitro proliferation of MV-4-11 cell line; for Maximum inhibition: MV-4-11, 72 h
Description: Human-derived acute leukemia cell line MV-4-11 is a cell line having mutation(s) in Flt-3.

[2] = test system: HUVEC; experiment: Cytotoxicity to HUVEC (MTS); assay type: cell-based, Human; settings: for TI = CC50/EC50: HUVEC; for Cytotoxicity to HUVEC compared with sunitinib: in words
Protocol: (§1) Assays for cytotoxicity: the above HUVECs were cultured in an F-12K culture medium containing 10% fetal bovine serum (FBS), 100 U/mL penicillin, 100 µg/mL streptomycin, 30 ug/mL ECGS, and 18 u/mL heparin. The HUVECs growing in the exponential phase were digested with pancreatin, and was adjust to have an appropriate level of cell density by using an F-12K complete medium containing 5% FBS, then 150 μL cells were inoculated into a 96-well plate at 3000 cells/well. […] After the cells were further cultured for 72 h, 20 μL MTS and 1 μL PMS were added to each well. 1-2 hours later, OD490 was measured, with OD650 as a reference. A dose-effect curve was drawn using the GraphPad Prism software, and half cytotoxic concentration (CC50) was calculated. The therapeutic index (TI) of the test compound on HUVECs was calculated as TI=CC50/EC50.

[3] = Cytotoxicity to HUVEC (MTS); assay type: cell-based, Human; settings: human, HUVEC cells; 72 h
Protocol: as §1

[4] = test system: HUVEC; experiment: Inhibitory activity on VEGF-induced in vitro proliferation of HUVEC (MTS); assay type: cell-based; settings: Homo sapiens, 72 h, read-out: EC50, activity on VEGF-induced in vitro proliferation of HUVEC
Protocol: Assays for inhibitory activity on VEGF-induced proliferation of Human umbilical veins […] cell (HUVEC) line: HUVECs were cultured in F-12K containing 10% FBS, 18 u/mL heparin and 30 µg/mL ECGS, and HUVECs at 4-8 passages were selected for the experiment. The cells were digested with pancreatin, re-suspended in culture media (1×10^5/mL), and were added to a 96-well plate with 100 μL/well, for overnight adherent culturing. The culture was replaced with an F-12K culture solution containing 5% FBS and the cells were cultured for 24 h. […] A 0.1% FBS F-12K culture solution containing VEGF165 at a final concentration of 30 ng/ml or the vehicle (DMSO) was added and the cells were cultured under induction for 72 h. The culture solution was removed by pipetting, and 120 μL MTS assay solution was added to each well, which was incubated at 37° C. The OD490 was read. The group treated with a 5% FBS F-12K culture solution served as the negative control. VEGF-stimulated growth value was obtained by subtracting the OD of the negative control group from the OD of the VEGF165-stimulated group, and used for calculation of inhibition. A dose-effect curve was drawn using the GraphPad Prism software, and half effective concentration (EC50) was calculated.

[5] = target: KDR (VEGF receptor) tyrosine kinase (Homo sapiens, UniProt P35968); experiment: In vitro assay of biochemical activity on KDR tyrosine kinase (HTRF); settings: read-out: In vitro inhibitory activity on KDR, IC50
Protocol: In vitro inhibitory activity of the compounds on KDR (VEGF receptor) tyrosine kinase was assayed by the HTRF (homogeneous time-resolved fluorescence) method. […] 10 μl SA-XL665 and a TK antibody were added to each well, which was incubated at room temperature for 1 h and read with Synergy2.

[6] = test system: MV-4-11 transplanted tumor; experiment: In vivo inhibition on MV-4-11 transplanted tumor in nude mice; set-up: species or system Balb/c nude mice; settings: for BW (body weight) D0 / TV (tumor volume) D0: D0, 80 mg/kg intragastric once per day; for BW (body weight) D0 / BW (body weight) D21: in g (unit assumed); for TV (tumor volume) D0 / TV (tumor volume) D21: in mm³; for BW (body weight) D21 / TV (tumor volume) D21: D21, 80 mg/kg intragastric once per day
Protocol: MV-4-11 cells were cultured to proliferate in vitro, and the cells growing in the exponential phase were harvested and re-suspended in a serum-free EMEM culture medium. The cell suspension was subcutaneously injected by a syringe into the axillary cavity of the right forelimb of male Balb/c nude mice. The animals and growth of transplanted tumors were observed regularly. […] During the administration period, the diameter of tumors and body weight (BW) of animals were measured, and the living status of animals was monitored. The experiment was finished 3 weeks after administration, and the animals were sacrificed with CO2 and subjected to autopsy.

[7] = day 21, 80 mg/kg intragastric, in words

Sequence of KDR (VEGF receptor) tyrosine kinase (P35968 20-1356): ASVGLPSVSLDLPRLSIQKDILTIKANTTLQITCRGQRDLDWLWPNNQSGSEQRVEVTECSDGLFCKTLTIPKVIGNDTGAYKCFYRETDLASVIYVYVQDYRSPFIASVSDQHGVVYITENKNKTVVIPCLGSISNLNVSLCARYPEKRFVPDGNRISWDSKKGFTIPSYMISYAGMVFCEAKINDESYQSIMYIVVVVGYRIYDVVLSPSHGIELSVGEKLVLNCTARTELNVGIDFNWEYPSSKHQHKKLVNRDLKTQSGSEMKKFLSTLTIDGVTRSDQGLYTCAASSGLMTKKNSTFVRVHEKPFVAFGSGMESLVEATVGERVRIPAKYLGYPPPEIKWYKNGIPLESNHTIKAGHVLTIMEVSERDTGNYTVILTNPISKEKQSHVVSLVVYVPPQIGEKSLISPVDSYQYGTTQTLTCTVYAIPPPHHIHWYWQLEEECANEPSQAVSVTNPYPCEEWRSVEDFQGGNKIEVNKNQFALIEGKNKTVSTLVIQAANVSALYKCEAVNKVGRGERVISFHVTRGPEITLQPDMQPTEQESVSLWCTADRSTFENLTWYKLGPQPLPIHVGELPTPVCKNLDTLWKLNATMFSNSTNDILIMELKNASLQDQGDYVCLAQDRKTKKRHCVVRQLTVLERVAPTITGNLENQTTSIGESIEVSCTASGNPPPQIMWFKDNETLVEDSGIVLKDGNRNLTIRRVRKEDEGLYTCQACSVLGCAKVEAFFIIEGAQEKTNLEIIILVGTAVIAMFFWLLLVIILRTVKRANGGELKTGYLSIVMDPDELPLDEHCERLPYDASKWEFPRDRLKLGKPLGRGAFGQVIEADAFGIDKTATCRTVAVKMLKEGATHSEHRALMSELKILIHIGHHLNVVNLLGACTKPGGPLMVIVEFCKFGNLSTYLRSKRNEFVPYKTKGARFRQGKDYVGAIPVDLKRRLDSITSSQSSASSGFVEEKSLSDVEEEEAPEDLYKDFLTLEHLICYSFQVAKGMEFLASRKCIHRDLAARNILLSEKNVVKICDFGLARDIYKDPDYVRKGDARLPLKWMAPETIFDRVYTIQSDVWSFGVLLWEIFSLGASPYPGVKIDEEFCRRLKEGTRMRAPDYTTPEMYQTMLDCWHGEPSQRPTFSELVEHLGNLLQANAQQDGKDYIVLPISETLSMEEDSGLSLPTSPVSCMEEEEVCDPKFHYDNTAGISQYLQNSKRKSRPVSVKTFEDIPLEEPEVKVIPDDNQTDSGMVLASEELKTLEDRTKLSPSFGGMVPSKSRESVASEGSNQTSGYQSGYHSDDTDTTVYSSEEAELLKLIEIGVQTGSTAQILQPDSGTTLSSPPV

SMILES | IC50 [1] [nM] | Maximum inhibition [1] [%] | TI = CC50/EC50 [2] | Cytotoxicity to HUVEC compared with sunitinib [2] | CC50 at 72 h [3] [nM] | EC50 ([4]; VEGF165 30 ng/ml) [nM] | IC50 [5] [nM] | BW (body weight) D0 [6] | TV (tumor volume) D0 [6] | BW (body weight) D21 [6] | TV (tumor volume) D21 [6] | Impact on body weight of animals [6, 7] | Impact on body weight of animals ([6]; day 21, 80 mg/kg intragastric, in words, listed as sunitinib) | EC50 [4] [nM] | Effect on tumors [6, 7]
Cc1[nH]c(/C=C2\C(=O)Nc3ccc(F)cc32)c(C)c1NC(=O)[C@@H]1CCCN1 [Compound 15] | 12.3 | 92.5 | 1247 | considerably lower than that of sunitinib | 17700 | 14.2 | 65 | – | – | – | – | – | – | – | –
CCN(CC)CCNC(=O)c1c(C)[nH]c(/C=C2\C(=O)Nc3ccc(F)cc32)c1C [Sunitinib, reference compound] | 3.94 | 94.4 | – | – | 4140 | – | – | 19.47 ± 0.33 | 242.75 ± 20.58 | 16.02 ± 0.56 | 12.97 ± 2.47 | significantly reduces the body weight | significantly reduced | 7.73 | –
Cc1[nH]c(/C=C2\C(=O)Nc3ccc(F)cc32)c(C)c1NC(=O)C1CCNCC1 [Compound 2] | 4.7 | 92.6 | >1238 | considerably lower than that of sunitinib | > 20000 | 16.1 | 290 | – | – | – | – | – | – | – | –
Cc1[nH]c(/C=C2\C(=O)Nc3ccc(F)cc32)c(C)c1NC(=O)C1CCN(C)CC1 [Compound 5] | 1.68 | 95.0 | >1085 | considerably lower than that of sunitinib | > 20000 | 18.4 | 141 | – | – | – | – | – | – | – | –
Cc1[nH]c(/C=C2\C(=O)Nc3ccc(F)cc32)c(C)c1NC(=O)C1CCCNC1 (stereo not shown) [Compound 12] | 7.87 | 93.1 | – | – | – | – | 142 | – | – | – | – | – | – | – | –
Cc1[nH]c(/C=C2\C(=O)Nc3ccc(F)cc32)c(C)c1NC(=O)C1CCN(C(=O)N(C)C)CC1 [Compound 3] | 10.7 | 92.1 | >1456 | considerably lower than that of sunitinib | > 20000 | 13.7 | 78 | – | – | – | – | – | – | – | –
Cc1[nH]c(/C=C2\C(=O)Nc3ccc(F)cc32)c(C)c1NC(=O)N1CCCCC1 [Comparative compound 1, reference compound] | – | – | 430 | – | 5690 | 13.2 | – | – | – | – | – | – | – | – | –
Cc1[nH]c(/C=C2\C(=O)Nc3ccc(F)cc32)c(C)c1NC(=O)C1CCN(C(=O)N2CCCC2)CC1 [Compound 11] | – | – | >1436 | considerably lower than that of sunitinib | > 20000 | 13.9 | 74 | – | – | – | – | – | – | – | –
Cc1[nH]c(/C=C2\C(=O)Nc3ccc(F)cc32)c(C)c1NC(=O)[C@H]1CCCN1 [Compound 6] | 11.6 | 92.4 | 1316 | considerably lower than that of sunitinib | 17600 | 13.3 | 83 | 20.42 ± 0.20 | 238.25 ± 13.18 | 21.38 ± 0.37 | 0.00 ± 0.00 | no significant impact on the body weight; also recorded: little impact on the body weight | – | – | completely disappeared; also recorded: complete disappearance of tumors
Cc1[nH]c(/C=C2\C(=O)Nc3ccc(F)cc32)c(C)c1NC(=O)C1CCCCN1 (stereo not shown) [Compound 9] | 5.34 | 94.3 | – | – | – | – | 89 | – | – | – | – | – | – | – | –
Cc1[nH]c(/C=C2\C(=O)Nc3ccc(F)cc32)c(C)c1NC(=O)[C@H]1CCCN1C(=O)N(C)C [Compound 8] | – | – | >1762 | considerably lower than that of sunitinib | > 20000 | 11.3 | 66 | – | – | – | – | – | – | – | –
Cc1[nH]c(/C=C2\C(=O)Nc3ccc(F)cc32)c(C)c1NC(=O)C1CCCN(C(=O)N(C)C)C1 (stereo not shown) [Compound 13] | 6.41 | 90.2 | – | considerably lower than that of sunitinib | – | – | 77 | – | – | – | – | – | – | – | –
Cc1[nH]c(/C=C2\C(=O)Nc3ccc(F)cc32)c(C)c1NC(=O)N1CCCC1 [Comparative compound 2, reference compound] | – | – | 567 | – | 6980 | 12.3 | – | – | – | – | – | – | – | – | –
Cc1[nH]c(/C=C2\C(=O)Nc3ccc(F)cc32)c(C)c1NC(=O)CC1CCNCC1 [Comparative compound 3, reference compound] | – | – | 550 | – | 8050 | 14.6 | – | – | – | – | – | – | – | – | –
Cc1[nH]c(/C=C2\C(=O)Nc3ccc(F)cc32)c(C)c1NC(=O)C1CCCN(C(=O)N2CCCC2)C1 (stereo not shown) [Compound 14] | – | – | >1534 | considerably lower than that of sunitinib | > 20000 | 13 | 143 | – | – | – | – | – | – | – | –
